Reference: ChEMBL document CHEMBL5523751, “Discovery of Novel Diaryl-Substituted Fused Heterocycles Targeting Katanin and Tubulin with Potent Antitumor and Antimultidrug Resistance Efficacy” (J Med Chem, 2024)
Calls of active or inactive are those of the source. The calls are words filed in the database; no cut-off is given here.

Assays:
[1] = test system: MCF7; assay: Induction of apoptosis in human MCF7 cells assessed as necrotic cells at 40 nM measured after 48 hrs by annexin-FITC and propidium iodide staining based flow cytometry analysis (reference value: 0.18%); type: functional
[2] = test system: HUVEC; assay: Anti-angiogenesis activity in human HUVEC cells assessed as disruption of capillary tube formation at 30 nM incubated for 6 hrs by inverted microscopic analysis; type: functional, cell-based
[3] = test system: MCF7; assay: Upregulation of cyclin-B1 expression level in human MCF7 cells at 1 to 10 nM by Western blot analysis; type: functional, cell-based; conditions: dose 1-10 nM
[4] = AUC (0 to infinity) in mouse at 3 mg/kg, iv measured upto 24 hrs by LC-MS/MS analysis; type: ADME, organism-based; conditions: in vivo
[5] = test system: MDA-MB-231; assay: Inhibition of cell migration in human MDA-MB-231 cells assessed as reduction in number of cell migrated at 10 to 40 nM incubated for 24 hrs by crystal violet staining based analysis; type: functional; conditions: dose 10-40 nM
[6] = Acute toxicity in ICR mouse assessed as survival rate at 200 mg/kg, ip measured after 14 days relative to control; type: organism-based; conditions: in vivo, time 14 day
[7] = Acute toxicity in ICR mouse assessed as survival rate at 100 mg/kg, ip measured after 14 days relative to control; type: organism-based; conditions: in vivo, time 14 day
[8] = Toxicity in Balb/C nude mouse xenografted with A549/Taxol assessed as effect on heart at 15 mg/kg, ip measured after 14 days by H and E staining based analysis; type: organism-based, A549/TR; conditions: in vivo, 336 h, time 14 day
[9] = Acute toxicity in ICR mouse assessed as animal death at 100 mg/kg, ip measured after 3 to 14 days; type: organism-based; conditions: in vivo, time 3-14 day
[10] = Half life in mouse at 15 mg/kg, po measured upto 24 hrs by LC-MS/MS analysis; type: ADME, organism-based; conditions: in vivo
[11] = test system: MCF7; assay: Induction of apoptosis in human MCF7 cells measured after 48 hrs by annexin-FITC and propidium iodide staining based flow cytometry analysis; type: functional, cell-based; conditions: dose 10-40 nM
[12] = Acute toxicity in ICR mouse assessed as survival rate at 150 mg/kg, ip measured after 14 days relative to control; type: organism-based; conditions: in vivo, time 14 day
[13] = Toxicity in Balb/C nude mouse assessed as abnormalities in lung at 7.5 to 15 mg/kg, ip measured after 14 days by H and E staining based analysis; type: organism-based; conditions: in vivo, 336 h, dose 7.5-15 mg/kg, time 14 day
[14] = test system: MDA-MB-231; assay: Antiproliferative activity against human MDA-MB-231 cells assessed as inhibition of cell growth measured after 48 hrs by MTT assay; type: functional, cell-based; conditions: MDA-MB-231, 48 h
[15] = test system: HT-29; assay: Antiproliferative activity against human HT-29 cells assessed as inhibition of cell growth measured after 48 hrs by MTT assay; type: functional, cell-based; conditions: HT-29, 48 h
[16] = Toxicity in Balb/C nude mouse xenografted with A549/Taxol assessed as effect on spleen at 15 mg/kg, ip measured after 14 days by H and E staining based analysis; type: organism-based, A549/TR; conditions: in vivo, 336 h, time 14 day
[17] = test system: MDA-MB-231; assay: Antitumor activity against human MDA-MB-231 cells xenografted in BALB/c nude mouse model assessed as increase in tumor necrosis at 7.5 to 15 mg/kg, ip measured after 14 days by H and E staining based analysis; type: functional, organism-based; conditions: dose 7.5-15 mg/kg, time 14.0 day
[18] = Toxicity in Balb/C nude mouse xenografted with A549/Taxol assessed as changes in blood routine parameters at 15 mg/kg, ip measured after 14 days by biochemical assay; type: organism-based, A549/TR; conditions: in vivo, 336 h, time 14 day
[19] = MRT (0 to infinity) in mouse at 15 mg/kg, po measured upto 24 hrs by LC-MS/MS analysis; type: ADME, organism-based; conditions: in vivo
[20] = Acute toxicity in ICR mouse assessed as animal death at 50 mg/kg, ip measured after upto 14 days; type: organism-based; conditions: in vivo, 336 h, time < 14 day
[21] = Toxicity in Balb/C nude mouse assessed as abnormalities in kidney at 7.5 to 15 mg/kg, ip measured after 14 days by H and E staining based analysis; type: organism-based; conditions: in vivo, 336 h, dose 7.5-15 mg/kg, time 14 day
[22] = MRT (0 to t) in mouse at 3 mg/kg, iv measured upto 24 hrs by LC-MS/MS analysis; type: ADME, organism-based; conditions: in vivo
[23] = test system: MCF7; assay: Induction of apoptosis in human MCF7 cells assessed as upregulation of p53 protein level by Western blot analysis; type: functional, cell-based; conditions: dose 10-40 nM
[24] = Antiproliferative activity against human CDDP-resistant A549 cell assessed as inhibition of cell growth measured after 48 hrs by MTT assay; type: functional, cell-based
[25] = test system: PANC-1; assay: Antiproliferative activity against human PANC-1 assessed as inhibition of cell growth measured after 48 hrs by MTT assay; type: functional, cell-based; conditions: PANC-1, 48 h
[26] = test system: MCF7; assay: Upregulation of CDK1 expression level in human MCF7 cells at 1 to 10 nM by Western blot analysis; type: functional, cell-based; conditions: dose 1-10 nM
[27] = molecular target: T1, Katanin p60 ATPase-containing subunit A1 (Homo sapiens, UniProt O75449); assay: Induction of thermal stabilization in N-terminal human Katanin p60 (8 to 229 residues) expressed in Escherichia coli Rosetta (DE3) at 10 uM by thermal shift assay
T1 sequence (O75449 whole entry, the tested form may be a part): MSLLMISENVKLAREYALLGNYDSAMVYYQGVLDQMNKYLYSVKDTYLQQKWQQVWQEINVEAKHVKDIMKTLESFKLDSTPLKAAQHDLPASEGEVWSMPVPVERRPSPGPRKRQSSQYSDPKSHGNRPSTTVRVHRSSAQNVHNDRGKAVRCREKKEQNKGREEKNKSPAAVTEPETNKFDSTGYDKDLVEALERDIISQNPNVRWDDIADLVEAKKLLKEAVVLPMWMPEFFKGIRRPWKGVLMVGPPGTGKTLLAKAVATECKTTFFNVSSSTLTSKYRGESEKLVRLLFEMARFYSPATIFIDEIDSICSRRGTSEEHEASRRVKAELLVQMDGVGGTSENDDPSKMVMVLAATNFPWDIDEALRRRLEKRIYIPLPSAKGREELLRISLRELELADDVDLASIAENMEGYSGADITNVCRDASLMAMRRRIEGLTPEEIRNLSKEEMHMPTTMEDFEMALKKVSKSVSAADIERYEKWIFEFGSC

[28] = molecular target: T1, Katanin p60 ATPase-containing subunit A1; assay: Binding affinity to C-terminal human Katanin p60 (111 to 491 residues) expressed in Escherichia coli Rosetta (DE3) assessed as dissociation constant by SPR analysis
[29] = test system: MCF7; assay: Antiproliferative activity against katanin knockdown human MCF7 cells assessed as inhibition of cell growth at 0.2 to 25 nM measured after 48 hrs by MTT assay; type: functional, cell-based; conditions: dose 0.2-25 nM
[30] = test system: MDA-MB-231; assay: Inhibition of cell migration in human MDA-MB-231 cells assessed as delay in wound healing at 10 to 20 nM by inverted microscopy based analysis; type: functional; conditions: dose 10-20 nM
[31] = test system: DU-145; assay: Antiproliferative activity against human DU-145 assessed as inhibition of cell growth measured after 48 hrs by MTT assay; type: functional, cell-based; conditions: DU-145, 48 h
[32] = test system: MCF7; assay: Induction of apoptosis in human MCF7 cells assessed as upregulation of bad protein level by Western blot analysis; type: functional, cell-based; conditions: dose 10-40 nM
[33] = test system: MDA-MB-231; assay: Downregulation of vimentin expression in human MDA-MB-231 cells at 5 to 40 nM by Western blot analysis; type: functional, cell-based; conditions: dose 5-40 nM
[34] = test system: A549/TR; assay: Antitumor activity against paclitaxel resistant human A549/Taxol cells xenografted in BALB/c nude mouse model assessed as inhibition of tumor growth at 15 mg/kg, ip measured after 14 days relative to control; type: functional; set-up: scale not given: the % may be the effect or the level left; conditions: time 14 day
[35] = test system: MDA-MB-231; assay: Antitumor activity against human MDA-MB-231 cells xenografted in BALB/c nude mouse model assessed as tumor weight reduction at 7.5 mg/kg, ip measured after 14 days relative to control; type: functional; set-up: scale not given: the % may be the effect or the level left; conditions: time 14 day
[36] = Cmax in mouse at 3 mg/kg, iv measured upto 24 hrs by LC-MS/MS analysis; type: ADME, organism-based; conditions: in vivo
[37] = MRT (0 to t) in mouse at 15 mg/kg, po measured upto 24 hrs by LC-MS/MS analysis; type: ADME, organism-based; conditions: in vivo
[38] = Toxicity in ICR mouse assessed as lethal dose administered as IP dose measured upto 14 days; conditions: in vivo, time < 14 day
[39] = test system: HCT-116; assay: Antiproliferative activity against human HCT-116 cells assessed as inhibition of cell growth measured after 48 hrs by MTT assay; type: functional, cell-based; conditions: HCT-116, 48 h

With `COc1cc(-n2cnc3ccc(-c4ccc(C)c(N)c4)nc32)cc(OC)c1OC` the Activity [1] was 0.36%, the Activity [2] was “Active” and the Activity [3] was “Active”. The AUC(0-inf) [4] was 668 ng·h/mL, the inhibition [5] was “Active” and the survival at 336 h [6] was 40%. The survival at 336 h [7] was 80%, the Activity [8] was “Non-Toxic” and the Activity [9] was “Non-Toxic”. The half-life [10] was 1.92 h, the Activity [11] was “Dose-Dependent Effect” and the survival at 336 h [12] was 50%. For the same molecule, the Activity [13] was “Non-Toxic”, the IC50 [14] was 20 nM and the IC50 [15] was 11 nM. The Activity [16] was “Non-Toxic”, the Activity [17] was “Active” and the Activity [18] was “Toxic”. The MRT inf [19] was 2.47 h, the Activity [20] was “Non-Toxic” and the Activity [21] was “Non-Toxic”. The MRT last at 24 h [22] was 0.49 h, the Activity [23] was “Dose-Dependent Effect” and the IC50 [24] was 2 nM. The IC50 [25] was 4 nM, the Activity [26] was “Active” and the Activity [27] was “Active”. For the same molecule, the Kd [28] was greater than 50000 nM, the Activity [29] was “inactive” and the inhibition [30] was “Active”. For the same molecule, the IC50 [31] was 4 nM, the Activity [32] was “Dose-Dependent Effect” and the Activity [33] was “Active”. The Activity [34] was 74%, the Activity [35] was 63% and the Cmax [36] was 1650 ng/mL. It also gave an MRT last at 24 h [37] of 1.83 h, an LD50 at 336 h [38] of 150 mg/kg and an IC50 [39] of 3 nM.
